Legend:
[1] = biological target: T1, binding between NRF2 and KEAP1 (Homo sapiens, UniProt Q14145); assay: Measurement 1 of Nrf2 activating action (binding assay): BRET assay of inhibition of the binding between NRF2 and KEAP1; details: 50% binding inhibitory concentration, NanoLuc-NRF2 / KEAP1-HaloTag cell lysates
T1 construct: expressed in transfected cells; host or cells: HCE-T cells; each protein was expressed separately, and the two cell lysates were mixed in the well
Protocol: Compounds 1 to 53 produced in the Examples were used as test substances.
The inhibitory activity of each compound on the binding between NRF2 and KEAP1 was measured by bioluminescence resonance energy transfer (BRET) assay. A plasmid having human NRF2 (Original Clone ID: ha01449s1) sequence fused with NanoLuc (19 kDa, Promega) at the N-terminal was transduced into HCE-T cells using FuGENE HD (Promega). 48 hours after transduction, the cell lysate was collected and used as an NRF2-expressing cell lysate. A plasmid having human KEAP1 (Original Clone ID: cs00328) sequence fused with HaloTag (33 kDa, Promega) at the C-terminal was transduced into HCE-T cells using FuGENE HD (Promega). After 24 hours, HaloTag Nano BRET 618 Ligand (Promega) was added to the medium. The cell lysate cultured for 24 hours after the addition was used as a KEAP1-expressing cell lysate.
The NRF2-expressing cell lysate and the KEAP1-expressing cell lysate were adjusted so that the luminescence and fluorescence intensities per well were constant. Tables 1 and 2 show the formulation of each reaction solution.
Each test substance at a concentration 100 times higher than the test concentration was dissolved in dimethylsulfoxide for adjustment. 49 μL of KEAP1 solution was added to a 96-well polystyrene microplate (FALCON) to which 1 μL of each test substance solution was added, followed by incubation for 15 minutes. Then, 50 μL of NRF2 solution was added to the above solution, followed by incubation for 1 hour. To measure the binding between NRF2 and KEAP1, NanoBRET Nano-Glo Substrate (Promega) diluted with Opti-Mem (Thermo Fisher Scientific) was added, followed by shaking for 30 seconds. Then, luminescence and fluorescence were measured using the GloMax Discover System (Promega). A 495-nm short pass filter and a 600-nm long pass filter were respectively used to measure donor and acceptor emission values. A value obtained by dividing the acceptor emission value by the donor emission value was regarded as BRET value. A BRET value when the compound was not added, and a BRET value when the KEAP1 solution was not added were respectively used as binding rates of 100% and 0%, and the binding rate when the compound was added was calculated. Further, using this binding rate, the 50% binding inhibitory activity concentration (IC50) was calculated from the following formula: IC50(M)=10^(LOG(A/B)×(50−C)/(D−C)+LOG(B)) • A: higher concentration out of 2 close concentrations across the inhibition rate of 50% • B: lower concentration out of 2 close concentrations across the inhibition rate of 50% • C: inhibition rate at B • D: inhibition rate at A

[2] = Measurement of metabolic stability in human liver microsomes; format: in vitro ADME; details: residual ratio of test compound after 30 minutes at 37° C. with human liver microsome, LC/MS/MS
Protocol: 1 mmol/L DMSO solutions of the compounds produced in the Examples were prepared. Each of the 1 mmol/L DMSO solutions was diluted with acetonitrile to 10 μmol/L, and then diluted with a 6.5 mmol/L Q-NADPH solution to 200 nmol/L. 50 μL of each solution was added to the reaction group and the non-reaction group. 50 μL of a 0.2 mg protein/mL human liver microsome (Mixed Gender, Pool of 50 livers; XenoTech, LLC) solution was added to the reaction group, followed by incubation at 37° C. for 30 minutes with shaking. After 400 μL of methanol was added to the non-reaction group, 50 μL of a 0.2 mg protein/mL human liver microsome solution was added to adjust the formulation. After incubation in the reaction group, 400 μL of methanol was added to stop the reaction. The samples of the reaction group and non-reaction group were allowed to stand at −20° C. for about 30 minutes, followed by centrifugation at 4° C. at 3000 rpm for about 10 minutes. The supernatant was analyzed using LC/MS/MS, and the residual ratio of the test compound was calculated from the peak area value of the test compound using the following formula. The measurement was carried out using the following devices: HPLC system: LC-20A-Series High Performance Liquid Chromatograph (Shimadzu Corporation) and mass spectrometer: API 4000 (AB Sciex Pte. Ltd.), or using equivalent devices. Residual ratio (%)=(peak area value of test compound in reaction group/peak area value of test compound in non-reaction group)×100 Results

T1 sequence (Q14145 whole entry): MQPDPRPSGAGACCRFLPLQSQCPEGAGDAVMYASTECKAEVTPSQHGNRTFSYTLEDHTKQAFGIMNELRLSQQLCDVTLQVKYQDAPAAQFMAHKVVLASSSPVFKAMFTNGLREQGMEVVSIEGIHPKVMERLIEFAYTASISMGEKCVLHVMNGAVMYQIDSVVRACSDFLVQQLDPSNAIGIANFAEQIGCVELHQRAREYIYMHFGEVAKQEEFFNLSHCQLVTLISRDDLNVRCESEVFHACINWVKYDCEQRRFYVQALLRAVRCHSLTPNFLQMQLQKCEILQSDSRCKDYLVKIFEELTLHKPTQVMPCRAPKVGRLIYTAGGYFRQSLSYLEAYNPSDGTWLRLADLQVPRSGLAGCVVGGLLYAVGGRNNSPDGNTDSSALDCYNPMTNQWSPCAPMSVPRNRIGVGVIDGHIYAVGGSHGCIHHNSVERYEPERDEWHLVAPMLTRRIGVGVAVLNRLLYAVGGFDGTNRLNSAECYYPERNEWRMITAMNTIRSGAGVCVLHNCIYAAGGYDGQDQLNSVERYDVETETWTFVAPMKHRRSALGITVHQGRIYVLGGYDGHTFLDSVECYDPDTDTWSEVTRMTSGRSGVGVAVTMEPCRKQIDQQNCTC

IC50 [1] [nM] | Metabolic stability* [2] [%] | SMILES
14 | 81 | CC[C@@H]1CN(Cc2cc(C(CC(=O)O)c3ccc(C(=O)NCCOC)o3)ccc2C)S(=O)(=O)c2ccccc2O1 (stereo partly drawn) [Compound 30, 3-(3-{[(R)-4-ethyl-1,1-dioxide-3,4-dihydro-2H-benzo[b][1,4,5]oxathiazepin-2-yl]methyl}-4-methylphenyl)-3-{5-[(2-methoxyethyl)carbamoyl]furan-2-yl}propanoic acid]
17 | 93 | CC[C@@H]1CN(Cc2cc(C(CC(=O)O)c3ccc(C(=O)NC)o3)ccc2C)S(=O)(=O)c2ccccc2O1 (stereo partly drawn) [Compound 26, 3-(3-{[(R)-4-ethyl-1,1-dioxide-3,4-dihydro-2H-benzo[b][1,4,5]oxathiazepin-2-yl]methyl}-4-methylphenyl)-3-[5-(methylcarbamoyl)furan-2-yl]propanoic acid]
0.3 | 62 | CC[C@@H]1CN(Cc2cc(C(CC(=O)O)c3ccc(C(C)=O)n3C)ccc2C)S(=O)(=O)c2ccccc2O1 (stereo partly drawn) [Compound 33, 3-(5-acetyl-1-methyl-1H-pyrrol-2-yl)-3-(3-{[(R)-4-ethyl-1,1-dioxide-3,4-dihydro-2H-benzo[b][1,4,5]oxathiazepin-2-yl]methyl}-4-methylphenyl)propanoic acid]
0.22 | 61 | CC[C@@H]1CN(Cc2cc(C(CC(=O)O)c3cc4c(s3)C(=O)NC4)ccc2C)S(=O)(=O)c2ccccc2O1 (stereo partly drawn) [Compound 38, 3-(3-{[(R)-4-ethyl-1,1-dioxide-3,4-dihydro-2H-benzo[b][1,4,5]oxathiazepin-2-yl]methyl}-4-methylphenyl)-3-(6-oxo-5,6-dihydro-4H-thieno[2,3-c]pyrrol-2-yl) propanoic acid]
35 | 40 | CC[C@@H]1CN(Cc2cc(C(CC(=O)O)c3ccc(S(N)(=O)=O)s3)ccc2C)S(=O)(=O)c2ccccc2O1 (stereo partly drawn) [Compound 18, 3-(3-{[(R)-4-ethyl-1,1-dioxide-3,4-dihydro-2H-benzo[b][1,4,5]oxathiazepin-2-yl]methyl}-4-methylphenyl)-3-(5-sulfamoylthiophen-2-yl)propanoic acid]
0.83 | 72 | CC[C@@H]1CN(Cc2cc(C(c3ccc(C(C)=O)o3)C(C)C(=O)O)ccc2C)S(=O)(=O)c2ccccc2O1 (stereo partly drawn) [Compound 24, 3-(5-acetylfuran-2-yl)-3-(3-{[(R)-4-ethyl-1,1-dioxide-3,4-dihydro-2H-benzo[b][1,4,5]oxathiazepin-2-yl]methyl}-4-methylphenyl)-2-methylpropanoic acid]
20 | 85 | CC[C@@H]1CN(Cc2cc(C(CC(=O)O)c3ccc(C(=O)N(C)C)o3)ccc2C)S(=O)(=O)c2ccccc2O1 (stereo partly drawn) [Compound 27, 3-[5-(dimethylcarbamoyl)furan-2-yl]-3-(3-{[(R)-4-ethyl-1,1-dioxide-3,4-dihydro-2H-benzo[b][1,4,5]oxathiazepin-2-yl]methyl}-4-methylphenyl)propanoic acid]
47 | 54 | CC[C@@H]1CN(Cc2cc(C(CC(=O)O)c3ccc(C(C)=O)n3CC)ccc2C)S(=O)(=O)c2ccccc2O1 (stereo partly drawn) [Compound 34, 3-(5-acetyl-1-ethyl-1H-pyrrol-2-yl)-3-(3-{[(R)-4-ethyl-1,1-dioxide-3,4-dihydro-2H-benzo[b][1,4,5]oxathiazepin-2-yl]methyl}-4-methylphenyl)propanoic acid]
3.8 | 72 | CC[C@@H]1CN(Cc2cc(C(CC(=O)O)c3ccc(C(C)=O)o3)ccc2C)S(=O)(=O)c2ccccc2O1 (stereo partly drawn) [Compound 25, 3-(5-acetylfuran-2-yl)-3-(3-{[(R)-4-ethyl-1,1-dioxide-3,4-dihydro-2H-benzo[b][1,4,5]oxathiazepin-2-yl]methyl}-4-methylphenyl)propanoic acid]
